Assays:
Assay type in all cases: cell-based
[1] = system: HEK293 cells overexpressing APOL1 G2; assay: APOL1 G2 HEK293 cell rescue assay (reversal of cell death caused by overexpression of APOL1); details: geometric mean of at least 2 assay runs, † = single assay run
In short: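 Each compound tested in duplicate wells on one plate per run, with values usually the geometric mean across at least two runs on different days, occasionally from one run only. Read-out: concentration giving half-maximal rescue of APOL1 G2 overexpression-induced death of HEK293 cells.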

[2] = system: HEK293 clonal cell line overexpressing APOL1 G1; assay: APOL1 G1 HEK293 cell rescue assay (Example B3); details: geometric mean of at least 2 runs, † = single run, ¥ = concentration at 50% rescue estimated (no sigmoidal curve)
In short: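 Rescue of cell death caused by APOL1 G1 overexpression was measured in a clonal HEK293 line. Compounds were tested in duplicate on one plate, and EC50s were geometric means across at least two runs on different days. Some values are estimated 50%-rescue concentrations where curve fitting failed.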

[3] = biological target: T1, APOL1 G2 (Homo sapiens, UniProt O14791, DEL388-389); assay: APOL1-mediated calcium transport (calcium influx) assay, HEK T-REx/GCaMP6f/APOL1 G2 K6.3 cells, FLIPR TETRA; details: prevention of calcium influx; geometric mean of at least 2 assay runs; † = average of a technical replicate from a single assay run
T1 construct: expressed in transfected cells; host or cells: HEK293 T-REx clonal line stably expressing GCaMP6f (HEK T-REx/GCaMP6f/APOL1 G2 K6.3), doxycycline induced
T1 sequence (O14791 with tags, fused parts or gaps DEL388-389): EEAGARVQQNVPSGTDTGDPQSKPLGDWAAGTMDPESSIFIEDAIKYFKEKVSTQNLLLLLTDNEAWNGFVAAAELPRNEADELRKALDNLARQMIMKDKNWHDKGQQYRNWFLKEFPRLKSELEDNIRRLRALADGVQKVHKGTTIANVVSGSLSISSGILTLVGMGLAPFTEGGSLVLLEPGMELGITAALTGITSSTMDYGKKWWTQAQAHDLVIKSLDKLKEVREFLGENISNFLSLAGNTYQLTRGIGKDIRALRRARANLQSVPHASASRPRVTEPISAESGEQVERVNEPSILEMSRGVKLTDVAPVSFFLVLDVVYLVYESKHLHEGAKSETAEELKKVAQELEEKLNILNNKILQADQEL
In short: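 A HEK293 T-REx clone stably expressing GCaMP6f had APOL1 G2 induced with doxycycline (20 ng/mL solution added) for 6 h. Cells were then washed into Ca2+-free Tyrode's buffer (pH 7.4) and preincubated with compounds (duplicate 8-point) for 10 min at room temperature. Ca2+ injection to 5 mM final produced FLIPR GCaMP fluorescence, giving AC50 for influx inhibition (geometric mean, ≥2 runs).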

[4] = HEK293 clonal line overexpressing APOL1 G1
[5] = Homo sapiens, HEK293, HEK293 overexpressing APOL1 G2
[6] = Homo sapiens, HEK293, HEK293 clonal line overexpressing APOL1 G1

Compound	EC50 ([1]; HEK293 overexpressing APOL1 G2) [nM]	EC50 [2, 4] [nM]	AC50 [3] [nM]	EC50 [1, 5] [nM]	EC50 [2, 6] [nM]
CC(COc1ccc(C2(S(C)(=O)=O)COC2)cc1)N1CCC2(CC1)C(=O)Nc1ccc(C#N)cc12 (single isomer, unassigned) [Compound 264, (R) or (S)-1′-{1-[4-(3-methanesulfonyloxetan-3-yl)phenoxy]propan-2-yl}-2-oxo-1,2-dihydrospiro[indole-3,4′-piperidine]-5-carbonitrile]	2250	~10000	1950		
CC1(Oc2ncc(OCCN3CCC4(CC3)C(=O)Nc3ccc(C#N)cc34)cn2)COC1 [Compound 173, 1′-[2-({2-[(3-methyloxetan-3-yl)oxy]pyrimidin-5-yl}oxy)ethyl]-2-oxo-1,2-dihydrospiro[indole-3,4′-piperidine]-5-carbonitrile]			908	289	1160
[2H]C([2H])([2H])N1C(=O)C2(CCN(CCOc3cnc(C(C)S(C)(=O)=O)nc3)CC2)c2cc(Cl)ccc21 (stereo not drawn) [Compound 425, 5-chloro-1′-(2-{[2-(1-methanesulfonylethyl)pyrimidin-5-yl]oxy}ethyl)-1-(^2H3)methyl-1,2-dihydrospiro[indole-3,4′-piperidin]-2-one]			1100	90.6	271
Cc1cc(OCCN2CCC3(CC2)C(=O)Nc2ccc(C#N)cc23)cc(C)c1S(C)(=O)=O [Compound 130, 1′-[2-(4-methanesulfonyl-3,5-dimethylphenoxy)ethyl]-2-oxo-1,2-dihydrospiro[indole-3,4′-piperidine]-5-carbonitrile]			525	92.3	253
C[C@]1(O)C[C@@H](n2cnc3cc(OCCN4CCC5(CC4)C(=O)Nc4ccc(Cl)cc45)cc(OC(F)F)c32)C1 [Compound 447, 5-chloro-1′-(2-{[7-(difluoromethoxy)-1-[(cis)-3-hydroxy-3-methylcyclobutyl]-1H-1,3-benzodiazol-5-yl]oxy}ethyl)-1,2-dihydrospiro[indole-3,4′-piperidin]-2-one]			1130	34.1	64.3
O=C1Cc2cc(OCCN3CCC4(CC3)C(=O)Nc3ccc(Cl)cc34)cc(F)c2N1 [Compound 256, 5-chloro-1′-{2-[(7-fluoro-2-oxo-2,3-dihydro-1H-indol-5-yl)oxy]ethyl}-1,2-dihydrospiro[indole-3,4′-piperidin]-2-one]			261	44.6	116
CC(COc1ccc(S(C)(=O)=O)cc1)N1CCC2(CC1)C(=O)N(C1CC(O)C1)c1ccc(Cl)cc12 (single isomer, unassigned) [Compound 208, 5-chloro-1′-[(2R) or (2S)-1-(4-methanesulfonylphenoxy)propan-2-yl]-1-[(cis) or (trans)-3-hydroxycyclobutyl]-1,2-dihydrospiro[indole-3,4′-piperidin]-2-one]	238	554	1550		
[2H]C([2H])([2H])N1C(=O)C2(CCN(CCOc3ccc(C4CCN(S(C)(=O)=O)CC4)cc3)CC2)c2cc(Cl)ccc21 [Compound 412, 5-chloro-1′-{2-[4-(1-methanesulfonylpiperidin-4-yl)phenoxy]ethyl}-1-(^2H3)methyl-1,2-dihydrospiro[indole-3,4′-piperidin]-2-one]			2900	45.3	70.7
CC(=O)N1CCc2cc(OCCN3CCC4(CC3)C(=O)Nc3ccc(Cl)cc34)ccc2C1 [Compound 194, 1′-{2-[(2-acetyl-1,2,3,4-tetrahydroisoquinolin-6-yl)oxy]ethyl}-5-chloro-1,2-dihydrospiro[indole-3,4′-piperidin]-2-one]			600	246	414
CN1C(=O)C2(CCN(CCOc3ccc4c(c3)CCS4(=O)=O)CC2)c2ccccc21 [Compound 32, 5-(2-{1-methyl-2-oxo-1,2-dihydrospiro[indole-3,4′-piperidin]-1′-yl}ethoxy)-2,3-dihydro-1λ^6-benzothiophene-1,1-dione]			262	785	1860
CC(COc1ccc2c(c1)CCC(=O)N2C)N1CCC2(CC1)C(=O)Nc1ccc(C#N)cc12 (stereo not drawn) [Compound 202, 1′-{1-[(1-methyl-2-oxo-1,2,3,4-tetrahydroquinolin-6-yl)oxy]propan-2-yl}-2-oxo-1,2-dihydrospiro[indole-3,4′-piperidine]-5-carbonitrile]			1720	315	2550
CC(COc1ccc(S(C)(=O)=O)cc1)N1CCC2(CC1)C(=O)N(C1CC(O)C1)c1ccc(Cl)cc12 (mixture of isomers) [Compound 205, 5-chloro-1′-[1-(4-methanesulfonylphenoxy)propan-2-yl]-1-[3-hydroxycyclobutyl]-1,2-dihydrospiro[indole-3,4′-piperidin]-2-one]			1220	472	1760
C[C@]1(O)C[C@@H](n2cnc3cc(OCCN4CCC5(CC4)C(=O)Nc4ccc(Cl)cc45)cc(C(F)F)c32)C1 [Compound 445, 5-chloro-1′-(2-{[7-(difluoromethyl)-1-[(cis)-3-hydroxy-3-methylcyclobutyl]-1H-1,3-benzodiazol-5-yl]oxy}ethyl)-1,2-dihydrospiro[indole-3,4′-piperidin]-2-one]			1110	8.15	29.4
CS(=O)(=O)c1ccc(OCCN2CCC3(CC2)C(=O)Nc2ccc(C#N)cc23)cc1C(F)CF (stereo not drawn) [Compound 220, 1′-{2-[3-(1,2-difluoroethyl)-4-methanesulfonyl-phenoxy]ethyl}-2-oxo-1,2-dihydrospiro [indole-3,4′-piperidine]-5-carbonitrile]			679	53	301
Cc1nc2cc(OCCN3CCC4(CC3)C(=O)Nc3ccc(Cl)cc34)cnc2n1[C@H]1C[C@@](C)(O)C1 [Compound 451, 5-chloro-1′-[2-({2-methyl-3-[(cis)-3-hydroxy-3-methylcyclobutyl]-3H-imidazo[4,5-b]pyridin-6-yl}oxy)ethyl]-1,2-dihydrospiro[indole-3,4′-piperidin]-2-one]			459	32.1	115
CC(C)(O)c1ncc(OCCN2CCC3(CC2)C(=O)Nc2c(I)cc(Cl)cc23)cn1 [Compound 449, 5-chloro-1′-(2-((2-(2-hydroxypropan-2-yl)pyrimidin-5-yl)oxy)ethyl)-7-iodospiro[indoline-3,4′-piperidin]-2-one]			609	102	247
O=C1CCc2cc(OCCN3CCC4(CC3)C(=O)Nc3ccc(C(F)F)cc34)cnc2N1C1CC(CO)C1 (stereo not drawn) [Compound 316, 5-(difluoromethyl)-1′-[2-({8-[3-(hydroxymethyl)cyclobutyl]-7-oxo-5,6,7,8-tetrahydro-1,8-naphthyridin-3-yl}oxy)ethyl]-1,2-dihydrospiro[indole-3,4′-piperidin]-2-one]			1150	32.7	99.4
[2H]C([2H])([2H])N1C(=O)C2(CCN(CCOc3ccc(S(C)(=O)=O)cc3)CC2)c2cc(Cl)ccc21 [Compound 418]			309	78.5	215
CC(=O)N1CCCc2cc(OCCN3CCC4(CC3)C(=O)Nc3ccc(C#N)cc34)cnc21 [Compound 81, 1′-{2-[(8-acetyl-5,6,7,8-tetrahydro-1,8-naphthyridin-3-yl)oxy]ethyl}-2-oxo-1,2-dihydrospiro[indole-3,4′-piperidine]-5-carbonitrile]			549	280	948
